From patent US20230151437A1, “USE OF PROTEIN ASSEMBLIES TO RECORD CELLULAR EVENTS” (President and Fellows of Harvard College, priority 2021, published 2023)

Legend:
[1] = molecular target: T1, intracellular HT receptors (HT-NLS) (Rhodococcus rhodochrous, UniProt P0A3G2, A155T/A167V/A172T/A224E/C128F/C176G/D78G/E160K/E257K/H272N/K175M/K195N/L47V/L88M/N227D/P291S/S2A/S58T/T264A/Y273L/Y87F); experiment: Kinetics of HT dye labeling in HEK293T cells expressing HT-NLS; type: cell-based; details: for effective time constant of HT dye labeling: 1 μM dye, HEK293T cells; for first-order reaction rate constant of HT dye labeling: HEK293T cells expressing HT-NLS, 0.1 μM dye, combined membrane permeation and HT reaction
T1 construct: host or cells: HEK293T
Method: FIGS. 13A-13C show kinetics of HT dye labeling and turnover in HEK293T cells. […] The sharpness of the dye transition was 7.5 min, as calculated by the width of the peak in the second derivative of fluorescence vs. position (purple). FIGS. 13B-13C show kinetics of HT dye reaction in HEK293T cells. HEK293T cells expressing a nucleus-targeted HT construct (HT-NLS, Addgene #82518) were incubated with 0.1 μM of the indicated dye (FIG. 3B) or 1 μM of the indicated dye (FIG. 3C), and nuclear fluorescence was monitored as a function of time. In FIG. 3B, HT-iPAK4 labeling experiments were performed with 10-fold higher dye concentrations (1 μM).
Dye additions appeared as upward-going kinks in the fluorescence profiles (FIGS. 12D, 13A), which were located as peaks in the second derivative of fluorescence vs. position. By dividing the transition zone widths (full-width at half-maximum of the peak in the second derivative) by the assembly-specific growth rates, a mean transition zone duration of 7.5 min was calculated (FIG. 13A). To determine whether the kinetics of HT dye labeling affected the widths of these transitions, the labeling of intracellular HT receptors was measured with several different HT dyes. These measurements probed the combined effects of membrane permeation and the HT reaction. The first-order reaction rate constants were 2.9 μM^−1 min^−1 (JF525), 0.13 μM^−1 min^−1 (JFX608), and 0.27 μM^−1 min^−1 (JF669) (FIG. 13B). […] The effective time constants at 1 μM dye were: 43 min (JF503), 3.5 min (JF525), 2.0 min (JF552), 12 min (JFX608), and 17 min (JF669) (FIGS. 13A and 13C). The precision of localizing a dye transition in an assembly is not equal to the labeling time constant, but rather the precision with which one can identify the onset of the labeling reaction. For all the JF dyes, this time was much less than 10 min.
Measurements of HT dye labeling kinetics in HEK293T cells: HEK293T cells were transfected with an inducible nuclear-localized HT protein (HT-NLS, Addgene #82518). Doxycycline (DOX, 2 μg/ml) was added 12 h after transfection to induce the expression of HT-NLS. 24 h after transfection, cells were incubated with 0.1 μM of the indicated dye, and nuclear fluorescence was monitored via wide-field epifluorescence microscopy as a function of time.

[2] = system: cFos promoter; experiment: Ticker tape recording of PMA activation of cFos in neurons; type: cell-based, rat
Text: In neurons co-expressing CMV::iPAK4 (90%) and cFos::eGFP-iPAK4 (10%), assemblies initially grew with little green fluorescence. […] Sequential additions of PMA to a single dish led to distinct bands of eGFP fluorescence, clearly resolved by sharp eGFP boundaries (FIG. 5G).
To measure timing of cFos activation relative to fiducial timestamps, CMV::iPAK4 (80%), CMV::HT-iPAK4 (10%), and cFos::eGFP-iPAK4 (10%; FIG. 5E) were co-expressed. The neurons were stained with JF552, and then switched to JF669 at t=0. PMA (1 μM) was then added at t=3, 6, or 9 h, and a second fiducial timestamp was introduced by switching back to JF552 at t=12 h. Assemblies were grown until t=22 h and then fixed and imaged (FIG. 5F).
Chemical activation of neuronal activity: The cFos promoter was activated by phorbol 12-myristate 13-acetate (PMA; Sigma Aldrich P8139). Briefly, the PMA was first diluted with DMSO to form a 1 mM stock solution. At the designated time, 2 μl PMA stock was directly added to each 14 mm glass-bottom culture dish, which contained 2 ml BPNM/SM1 medium. The dishes were then stirred gently to mix the PMA and medium. After PMA addition, the dishes were returned to an incubator at 37° C. with 5% CO2.

[3] = system: Tet-ON transcription system; experiment: Ticker tape recording of DOX activation of the Tet-ON system in HEK cells; type: cell-based
Method: FIGS. 16A-16B show recordings of impulse response of protein expression following pulsed doxycycline (DOX) activation in HEK293T cells. […] Transitions to JF669 at t=0 and to JFX608 at t=8 h provided fiducial timestamps. Transcription was activated via addition of 2 μg/mL DOX at t=−0.5 h, followed by a thorough wash at t=0 h. FIG. 16B provides three representative examples showing the GFP intensity profiles on the protein ticker tapes. Top: representative images. Bottom: fluorescence line profiles. Scale bars: […].
As the first test of a physiological recording, iPAK4 assemblies were used to report on a transcriptional activator, the tetracycline mediated Tet-ON transcription system.^28 HEK cells were co-infected with lentivirus containing CMV::iPAK4 (60%), CMV::rTTA3 (30%), CMV::HT-iPAK4 (5%), and CMV::eGFP-iPAK4 (5%) to establish tetracycline-dependent eGFP-iPAK4 expression (FIG. 4A). After assemblies had nucleated (24 h after lentiviral infection), JF552 was added to label the initial nuclei, and JF669 was added at t=0. In different dishes, doxycycline (DOX, 2 μg/mL) was added at t=2, 4, or 6 h to activate expression of eGFP-iPAK4. Then JF552 was added again at t=8 h, and the assemblies were grown for another 8-14 h before fixation and imaging (FIG. 4B).

T1 sequence (P0A3G2 other isoform, or with tags, fused parts or gaps with the stated changes): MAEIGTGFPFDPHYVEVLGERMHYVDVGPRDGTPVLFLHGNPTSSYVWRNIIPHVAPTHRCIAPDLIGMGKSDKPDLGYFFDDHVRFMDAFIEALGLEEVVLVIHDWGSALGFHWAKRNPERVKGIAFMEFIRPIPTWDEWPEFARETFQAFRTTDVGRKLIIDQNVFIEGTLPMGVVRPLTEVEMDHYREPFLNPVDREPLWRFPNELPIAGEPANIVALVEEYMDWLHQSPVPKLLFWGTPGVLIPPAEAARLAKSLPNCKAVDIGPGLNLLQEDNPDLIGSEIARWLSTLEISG

JF525 [reference compound]
effective time constant of HT dye labeling [1]: 3.5 min
first-order reaction rate constant of HT dye labeling [1]: 48300 M⁻¹ s⁻¹

CCCCCCCCCCCCCC(=O)O[C@@H]1[C@@H](C)[C@@]2(O)[C@@H](C=C(CO)C[C@]3(O)C(=O)C(C)=C[C@@H]23)[C@@H]2C(C)(C)[C@]12OC(C)=O [PMA, phorbol 12-myristate 13-acetate]
delay of eGFP onset relative to PMA addition ([2]; PMA 1 μM at t=3, 6 or 9 h, neurons, extrapolated fit): 53 min
effect on cFos::eGFP-iPAK4 expression ([2]; PMA 1 μM, neurons co-expressing CMV::iPAK4 and cFos::eGFP-iPAK4): bands of bright green fluorescence
y-intercept of linear fit of eGFP onset ([2]; PMA at t=3, 6 or 9 h, neurons): ca. 1.0 h

C[C@H]1c2cccc(O)c2C(=O)C2=C(O)[C@]3(O)C(=O)C(C(N)=O)=C(O)[C@@H](N(C)C)[C@@H]3[C@@H](O)[C@@H]21 [DOX, doxycycline]
duration of rise of eGFP-iPAK4 expression ([3]; 30-minute pulse of DOX): approximately 8 h
window of protein expression ([3]; 30-minute pulse of DOX): ~14 h
offset between DOX addition and start of the green stripe (y-intercept of linear fit) ([3]; DOX 2 μg/mL at t=2, 4 or 6 h, HEK cells, N=191 assemblies): 1.2 h

JFX608-HaloTag ligand
effective time constant of HT dye labeling [1]: 12 min
first-order reaction rate constant of HT dye labeling [1]: 2170 M⁻¹ s⁻¹
